Consider 35 compounds from patent US9346794B1, “Substituted 4-pyridones and their use as inhibitors of neutrophil elastase activity” (Boehringer Ingelheim International GmbH, priority 2012, dated 2016).

The target of this test is Human neutrophil elastase (Homo sapiens (Human), UniProt P08246). The test can be described thus: Human Neutrophil Elastase Assay. The class given is biochemical. Particulars: substrate MeOSuc-Ala-Ala-Pro-Val-AMC 250 μM, fluorescence, pH 7.5. As for the experimental part: Human Neutrophil Elastase Assay
Human neutrophil elastase, sequence (P08246 30-247): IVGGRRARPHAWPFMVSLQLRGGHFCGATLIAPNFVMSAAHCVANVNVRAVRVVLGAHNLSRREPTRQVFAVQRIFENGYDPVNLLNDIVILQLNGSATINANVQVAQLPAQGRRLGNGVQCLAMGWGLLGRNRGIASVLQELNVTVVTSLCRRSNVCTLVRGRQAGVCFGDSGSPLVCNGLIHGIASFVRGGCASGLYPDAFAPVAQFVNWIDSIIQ
All other materials were of the highest grade commercially available.
The following buffers were used: Compound buffer: 100 mM Tris, 500 mM NaCl, adjusted to pH 7.5; Assay buffer: 100 mM Tris, 500 mM NaCl, adjusted to pH 7.5, containing 0.01% BSA.
Assay conditions: Test compounds were prediluted in DMSO and subsequently in compound buffer (5% DMSO final). […] After inactivation of the enzyme, fluorescence intensities were measured at 380 nm excitation and 460 nm emission wavelengths.
Each plate contains wells with a high value control (DMSO+enzyme+substrate) and wells with a low value control (DMSO+inactivated enzyme+substrate). IC50 values were estimated using a sigmoidal concentration response curve with variable slope. Means of low values were taken as 0%, means of high values as 100%. IC50 values of selected compound in the Neutrophil Elastase assay: […]

Take `Cc1c(-c2cccc(C(F)F)c2)c(=O)c(C(=O)NCc2ccc(S(C)(=O)=NC#N)cc2)cn1-c1ccnn1C` (centres unmarked) [Example 7, 5-(3-Difluoromethyl-phenyl)-6-methyl-1-(2-methyl-2H-pyrazol-3-yl)-4-oxo-1,4-dihydro-pyridine-3-carboxylic acid 4-(N-cyano-S-methylsulfonimidoyl)-benzylamide]: 2.1 nM corresponded to half-maximal inhibition (IC50).
`Cc1c(-c2cccc(C(F)(F)F)c2)c(=O)c(C(=O)NCc2ccc(S(C)(=O)=NC#N)cc2)cn1-c1ccnn1C` (centres unmarked) [Example 8, 6-Methyl-1-(2-methyl-2H-pyrazol-3-yl)-4-oxo-5-(3-trifluoromethyl-phenyl)-1,4-dihydro-pyridine-3-carboxylic acid 4-(N-cyano-S-methylsulfonimidoyl)-benzylamide]: half-maximal inhibition (IC50) required 2.4 nM.
Then `Cc1c(-c2cccc(C(F)(F)F)c2)c(=O)c(C(=O)NCc2ccc(S(C)(=O)=NC#N)cc2)cn1Cc1ccc(C#N)cc1` (centres unmarked) [Example 9, 1-(4-Cyano-benzyl)-6-methyl-4-oxo-5-(3-trifluoromethyl-phenyl)-1,4-dihydro-pyridine-3-carboxylic acid 4-(N-cyano-S-methylsulfonimidoyl)-benzylamide], with below 1 nM; and `CCn1cc(C(=O)NCc2ccc(S(=O)(CC)=NC#N)cc2)c(=O)c(-c2cccc(C(F)(F)F)c2)c1C` (centres unmarked) [Example 10], with 1.2 nM; and `CCn1cc(C(=O)NCc2ccc(S(=O)(=NC#N)C(C)C)cc2)c(=O)c(-c2cccc(C(F)(F)F)c2)c1C` (centres unmarked) [Example 11], with below 1 nM.
To `CCS(=O)(=NC#N)c1ccc(CNC(=O)c2cn(C(C)C)c(C)c(-c3cccc(C(F)(F)F)c3)c2=O)cc1` (centres unmarked) [Example 12] belongs below 1 nM.
To `Cc1c(-c2cccc(C(F)(F)F)c2)c(=O)c(C(=O)NCc2ccc(S(C)(=O)=NC#N)c(F)c2)cn1C(C)C` (centres unmarked) [Example 13] belongs 2.4 nM; to `Cc1c(-c2cccc(C(F)(F)F)c2)c(=O)c(C(=O)NCc2ccc(S(C)(=O)=NC#N)cc2F)cn1C(C)C` (centres unmarked) [Example 14], 1.5 nM; to `Cc1cc(S(C)(=O)=NC#N)ccc1CNC(=O)c1cn(C(C)C)c(C)c(-c2cccc(C(F)(F)F)c2)c1=O` (centres unmarked) [Example 15], 2.2 nM.
As to `Cc1c(-c2cccc(C(F)(F)F)c2)c(=O)c(C(=O)NCc2ccc(S(C)(=O)=NC#N)cn2)cn1C(C)C` (centres unmarked) [Example 16, 5-(3-trifluoromethyl-phenyl)-1-isopropyl-6-methyl-4-oxo-1,4-dihydro-pyridine-3-carboxylic acid (5-(N-cyano-S-methylsulfonimidoyl)pyridin-2-yl)methylamide], the IC50 (usually the concentration that inhibits the measured activity by half) was 1.9 nM.
Then `Cc1c(-c2cccc(C(F)(F)F)c2)c(=O)c(C(=O)NCc2ccc(S(C)(=O)=NS(C)(=O)=O)cc2)cn1C(C)C` (centres unmarked) [Example 17], with 7.3 nM.
For the compound `CCS(=O)(=NC#N)c1ccc(CNC(=O)c2cn(-c3ccnn3C)c(C)c(-c3cccc(C(F)(F)F)c3)c2=O)cc1` (centres unmarked) [Example 18], the IC50 turned out to be 1.5 nM.
To `Cc1c(-c2cccc(C(F)(F)F)c2)c(=O)c(C(=O)NCc2ccc(S(=O)(=NC#N)C(C)C)cc2)cn1-c1ccnn1C` (centres unmarked) [Example 19] belongs 1 nM.
Then `CCn1cc(C(=O)NCc2ccc(S(=O)(CC)=NC#N)cc2)c(=O)c(-c2cccc(C(F)F)c2)c1C` (centres unmarked) [Example 29], with 1.5 nM; and `CCn1cc(C(=O)NCc2ccc(S(=O)(=NC#N)C(C)C)cc2)c(=O)c(-c2cccc(C(F)F)c2)c1C` (centres unmarked) [Example 30], with below 1 nM.
Consider `CCS(=O)(=NC#N)c1ccc(CNC(=O)c2cn(C(C)C)c(C)c(-c3cccc(C(F)F)c3)c2=O)cc1` (centres unmarked) [Example 31], for which the IC50 was below 1 nM.
As for `Cc1c(-c2cccc(C(F)F)c2)c(=O)c(C(=O)NCc2ccc(S(C)(=O)=NC#N)c(F)c2)cn1C(C)C` (centres unmarked) [Example 32], the midpoint of inhibition, the IC50, lay at 1.1 nM.
To `Cc1c(-c2cccc(C(F)F)c2)c(=O)c(C(=O)NCc2ccc(S(C)(=O)=NC#N)cc2F)cn1C(C)C` (centres unmarked) [Example 33] belongs 2.5 nM; to `Cc1cc(S(C)(=O)=NC#N)ccc1CNC(=O)c1cn(C(C)C)c(C)c(-c2cccc(C(F)F)c2)c1=O` (centres unmarked) [Example 34], 2.4 nM.
To `Cc1c(-c2cccc(C(F)F)c2)c(=O)c(C(=O)NCc2ccc(S(C)(=O)=NS(C)(=O)=O)cc2)cn1C(C)C` (centres unmarked) [Example 35] belongs 8 nM; to `CCS(=O)(=NC#N)c1ccc(CNC(=O)c2cn(-c3ccnn3C)c(C)c(-c3cccc(C(F)F)c3)c2=O)cc1` (centres unmarked) [Example 36], 1 nM.
Take `Cc1c(-c2cccc(C(F)F)c2)c(=O)c(C(=O)NCc2ccc(S(=O)(=NC#N)C(C)C)cc2)cn1-c1ccnn1C` (centres unmarked) [Example 37]: the concentration for half-maximal inhibition (IC50) is below 1 nM.
Then `Cc1noc(-n2cc(C(=O)NCc3ccc(S(C)(=O)=NC#N)cc3)c(=O)c(-c3cccc(C(F)(F)F)c3)c2C)c1C` (centres unmarked) [Example 49], with 7.3 nM; and `Cc1c(-c2cccc(C(F)(F)F)c2)c(=O)c(C(=O)NCc2ccc(S(C)(=O)=NC#N)cc2)cn1C1CCOCC1` (centres unmarked) [Example 53], with 2.3 nM; and `Cc1c(-c2cccc(C(F)(F)F)c2)c(=O)c(C(=O)NCc2ccc(S(C)(=O)=NC#N)cc2)cn1C1CCOC1` (centres unmarked) [Example 54], with 2.3 nM.
To `Cc1c(-c2cccc(C(F)(F)F)c2)c(=O)c(C(=O)NCc2ccc(S(C)(=O)=NC#N)cc2)cn1C1CCCOC1` (centres unmarked) [Example 55] belongs 1.8 nM; to `Cc1c(-c2cccc(C(F)(F)F)c2)c(=O)c(C(=O)NCc2ccc(S(C)(=O)=NC#N)cc2)cn1-c1nccs1` (centres unmarked) [Example 56], 3.1 nM.
`Cc1ccncc1-n1cc(C(=O)NCc2ccc(S(C)(=O)=NC#N)cc2)c(=O)c(-c2cccc(C(F)(F)F)c2)c1C` (centres unmarked) [Example 57]: the 50% inhibitory concentration (IC50) was determined as 1.7 nM.
`Cc1ccc(-n2cc(C(=O)NCc3ccc(S(C)(=O)=NC#N)cc3)c(=O)c(-c3cccc(C(F)(F)F)c3)c2C)cn1` (centres unmarked) [Example 58] registered an IC50 of 4.7 nM.
For the compound `CN=S(=O)(c1ccc(CNC(=O)c2cn(C(C)C)c(C)c(-c3cccc(C(F)(F)F)c3)c2=O)cc1)N(C)C` (centres unmarked) [Example 60, 5-(3-Trifluoromethyl-phenyl)-1-isopropyl-6-methyl-4-oxo-1,4-dihydro-pyridine-3-carboxylic acid 4-(N,N,N′-trimethylsulfamimidoyl)-benzylamide], the concentration for half-maximal inhibition (IC50) amounted to 22 nM.
Then `CN=S(=O)(c1ccc(CNC(=O)c2cn(C(C)C)c(C)c(-c3cccc(C(F)F)c3)c2=O)cc1)N(C)C` (centres unmarked) [Example 61, 5-(3-Difluoromethyl-phenyl)-1-isopropyl-6-methyl-4-oxo-1,4-dihydro-pyridine-3-carboxylic acid 4-(N,N,N′-trimethylsulfamimidoyl)-benzylamide], with 10.2 nM; and `Cc1c(-c2cccc(C(F)(F)F)c2)c(=O)c(C(=O)NCc2ccc(S(C)(=O)=NC#N)c[n+]2[O-])cn1C(C)C` (centres unmarked) [Example 62, 5-(3-Trifluoromethyl-phenyl)-1-isopropyl-6-methyl-4-oxo-1,4-dihydro-pyridine-3-carboxylic acid (5-(N-cyano-S-methylsulfonimidoyl)-1-oxy-pyridin-2-yl)-methylamide], with 2.7 nM.
Then `Cc1c(-c2cccc(C(F)(F)F)c2)c(=O)c(C(=O)NCc2ccc(S(=O)(=NC#N)C3CC3)cc2)cn1C(C)C` (centres unmarked) [Example 63, 1-Isopropyl-6-methyl-4-oxo-5-(3-trifluoromethyl-phenyl)-1,4-dihydro-pyridine-3-carboxylic acid 4-(S-cyclopropyl-N-cyanosulfonimidoyl)-benzylamide], with 1.4 nM; and `Cc1cc(CNC(=O)c2cn(C(C)C)c(C)c(-c3cccc(C(F)(F)F)c3)c2=O)ccc1S(C)(=O)=NC#N` (centres unmarked) [Example 66, 1-Isopropyl-6-methyl-4-oxo-5-(3-trifluoromethyl-phenyl)-1,4-dihydro-pyridine-3-carboxylic acid 3-methyl-4-(N-cyano-S-methylsulfonimidoyl)-benzylamide], with 3.4 nM.
Take `CN=S(C)(=O)c1ccc(CNC(=O)c2cn(C(C)C)c(C)c(-c3cccc(C(F)(F)F)c3)c2=O)cc1` (centres unmarked) [Example 67, 1-Isopropyl-6-methyl-4-oxo-5-(3-trifluoromethyl-phenyl)-1,4-dihydro-pyridine-3-carboxylic acid 4-(N,S-dimethylsulfonimidoyl)-benzylamide]: the IC50 came to 49.3 nM.
